# Measured values as given in patent US20150064227A1, “Sporicidal Formulation Including Botanical Extracts/Botanical-Derived Ingredients” (priority 2011, published 2015).
# System: C. diff. spores (Clostridium difficile ATCC 43593)
# Experiment: Sporicidal Efficacy Test against C. diff. spores
# Format: cell-based
# Conditions: botanical-derived ingredient 5.9 mg/ml in 75 % ethanol / 25 % water by volume; 5 min contact time
# Description: (§1) To determine the kill rate of solutions of interest against bacterial spores.
# (§2) Materials: • 1. Test solutions of interest • 2. Clostridium difficile ATCC 43593 • 3. Geobacillus stearothermophilus CICC 10142 • 4. Filter sterilized MilliQ water • 5. Neutralization broth (prepared according to directions below) • 6. Brain Heart Infusion (BHI) agar plates with 0.15% Sodium Taurocholate • 7. Tryptic Soy Agar (TSA) plates • 8. Taurocholic acid sodium salt hydrate (Sigma-Aldrich T-4009) • 9. Phosphate buffered saline (PBS) pH 7.2 • 10. Fetal Bovine Serum (FBS) • 11. Sterile plating beads • 12. Sterile Eppendorf vials (1.5 mL) • 13. Sterile tubes (15 mL) • 14. Pipettes and sterile pipette tips (100 μL and 1000 μL) • 15. Incubator capable of 37±3° C. • 16. Anaerobic rectangular jar (7 Liter AnaeroPack System commercially available from Mitsubishi Gas Chemical Co.) with 3 GasPak satchels (BD GasPak EZ, #260678)
# (§3) Procedure: • 1. Prepare culture stock of organism of interest to 10^7 CFU/ml in PBS. • 2. Thoroughly vortex the stock culture for ten minutes at medium-high speed. • 3. Dilute a small portion of the stock culture in MilliQ filter sterilized water and add FBS soil load to the inoculum to achieve a concentration of 5% v/v FBS. • 4. Place the inoculum in a sonicating water bath for five cycles of one minute on, one minute off • 5. Add 100 μL of spore culture to sterile vial containing 900 μL of test solution and vortex. • 6. After the test exposure time, vortex the vials. • 7. Transfer 100 μL of test solution and spore mixture to sterile tubes containing 900 μL neutralization broth to neutralize. • 8. Place the neutralized samples in a sonicating water bath for five cycles of one minute on, one minute off • 9. Vortex each tube. For C. difficile, pipette 100 μL of each neutralized sample on BHI+0.15% sodium taurocholate media plates (prepared in lab according to dehydrated powder instructions). For G. stearothermophilus, pipette 100 μL of each neutralized sample onto TSA plates. Spread using sterile beads. • 10. Prepare a control sample by adding the spore culture to 900 μL of filter sterilized MQ water and repeat steps 3-6 above. Dilute control code to achieve 10^2 CFU/ml. • 11. For C. difficile, place plates in anaerobic jars or boxes (with appropriate number of catalase pouches) or in the anaerobic chamber and incubate for 48±8 hours at 37±3° C. For G. stearothermophilus, incubate plates aerobically for 48±8 hours at […]. • 12. After incubation, enumerate colonies and record results. Calculate Log10 reduction by comparing the number of colonies recovered from the test solution versus those recovered with the control.
# (§4) Neutralization Broth Preparation: • 1. Mix the following ingredients: • 1 L Letheen broth • 0.3% ppm Lecithin • 3% ppm Tween 80 • 0.1% ppm Histidine • 2. Solution is sterilized by autoclave. • 3. Catalase (0.1-0.2%) is added when completely cooled and then filter sterilized.
row,Compound,Log Reduction (5 min contact time)
1,C[C@H]1COC2=C1C(=O)C(=O)c1c2ccc2c1CCCC2(C)C [Cryptotanshinone],3.43

# Same assay, conditions: botanical-derived ingredient 10 mg/ml in 75 % ethanol / 25 % water by volume; 5 min contact time
row,Compound,Log Reduction (5 min contact time)
1,CC(C)=CCC[C@]1(C)C=Cc2c(O)c3c(c(CC=C(C)C)c2O1)O[C@]12C(=C[C@@H]4C[C@H]1C(C)(C)O[C@@]2(C/C=C(/C)C(=O)O)C4=O)C3=O [Gambogic acid],3.96
2,CC(C)=CCCC1(C)CC(O)c2c(O)c3c(c(CC=C(C)C)c2O1)OC12C(=CC4CC1C(C)(C)OC2(C/C=C(\C)C(=O)O)C4=O)C3=O (stereo not drawn) [Neogambogic acid],3.96

# Same assay, conditions: concentration not given
row,Compound,sporicidal activity against C. diff. (in words)
1,Cc1cccc2c3c(ccc12)C1=C(C(=O)C3=O)[C@@H](C)CO1 [dihydrotanshinone],no detectable effect
2,Cc1coc2c1C(=O)C(=O)c1c-2ccc2c1CCCC2(C)C [tanshinone IIA],no detectable effect

# System: bacterial spores
# Experiment: Sporicidal Efficacy Test, spore species not given
# Format: cell-based
# Conditions: under the Sporicidal Efficacy Test; concentration not given
# Description: as §1, §2, §3, §4
row,Compound,sporicidal activity (in words)
1,CC(C)=CCC[C@]1(C)C=Cc2c(O)c3c(c(CC=C(C)C)c2O1)O[C@]12C(=C[C@@H]4C[C@H]1C(C)(C)O[C@@]2(C/C=C(/C)C(=O)O)C4=O)C3=O [Gambogic acid],demonstrated sporicidal activity
2,C[C@H](N)C(=O)O [L-alanine],None of these ingredients derived from botanical extracts illustrated sporicidal activity
3,O=C(O)[C@@H]1CCCN1 [L-proline],None of these ingredients derived from botanical extracts illustrated sporicidal activity
4,CC(C)=CCCC1(C)CC(O)c2c(O)c3c(c(CC=C(C)C)c2O1)OC12C(=CC4CC1C(C)(C)OC2(C/C=C(\C)C(=O)O)C4=O)C3=O (stereo not drawn) [Neogambogic acid],demonstrated sporicidal activity
5,CC(C)=CCc1cc2c(cc1O)O[C@H](c1ccc(O)cc1)CC2=O [bavachin],None of these ingredients derived from botanical extracts illustrated sporicidal activity
6,O=C(O)/C=C/c1ccc(O)c(O)c1 [caffeic acid],None of these ingredients derived from botanical extracts illustrated sporicidal activity
7,CC12CCC(CC1)C(C)(C)O2 [cineole],None of these ingredients derived from botanical extracts illustrated sporicidal activity
8,Cc1cccc2c3c(ccc12)C1=C(C(=O)C3=O)[C@@H](C)CO1 [dihydrotanshinone],None of these ingredients derived from botanical extracts illustrated sporicidal activity
9,COc1cc(/C=C/C(=O)O)ccc1O [ferulic acid],None of these ingredients derived from botanical extracts illustrated sporicidal activity
10,COC(=O)C1=CO[C@@H](O[C@@H]2O[C@H](CO)[C@@H](O)[C@H](O)[C@H]2O)[C@@H]2C(CO)=CC[C@H]12 [geniposide],None of these ingredients derived from botanical extracts illustrated sporicidal activity
11,O=c1c(-c2ccc(O)cc2)coc2cc(O)cc(O)c12 [genistein],None of these botanical extracts illustrated sporicidal activity
12,COc1ccc(-c2oc3c(CC=C(C)C)c(O)cc(O)c3c(=O)c2O)cc1 [icaritin],None of these ingredients derived from botanical extracts illustrated sporicidal activity
13,CC(C)=CCOc1c2occc2cc2ccc(=O)oc12 [imperatonin],None of these ingredients derived from botanical extracts illustrated sporicidal activity
14,CC(C)=CCOc1c2ccoc2cc2oc(=O)ccc12 [isoimperatorin],None of these ingredients derived from botanical extracts illustrated sporicidal activity
15,O=c1c(OC2OC(CO)C(O)C(O)C2O)c(-c2ccc(O)c(O)c2)oc2cc(O)cc(O)c12 (stereo not drawn) [isoquercetrin],None of these ingredients derived from botanical extracts illustrated sporicidal activity
16,O=c1c(O)c(-c2ccc(O)cc2)oc2cc(O)cc(O)c12 [kaempferol],None of these botanical extracts illustrated sporicidal activity

row,Compound,sporicidal activity (in words)
1,O=c1cc(-c2ccc(O)c(O)c2)oc2cc(O)cc(O)c12 [luteolin],None of these botanical extracts illustrated sporicidal activity
2,CC(C)=CCc1cc(-c2coc3cc(O)ccc3c2=O)ccc1O [neobavaisoflavone],None of these ingredients derived from botanical extracts illustrated sporicidal activity
3,O=c1cc(-c2ccccc2)oc2cc(O)c(O)c(O)c12 [noroxylin],None of these botanical extracts illustrated sporicidal activity
4,CC1(C)CC[C@]2(C(=O)O)CC[C@]3(C)C(=CC[C@@H]4[C@@]5(C)CC[C@H](O)C(C)(C)[C@@H]5CC[C@]43C)[C@@H]2C1 [oleanolic acid],None of these ingredients derived from botanical extracts illustrated sporicidal activity
5,COc1ccc2ccc(=O)oc2c1CC=C(C)C [osthole],None of these botanical extracts illustrated sporicidal activity
6,O=C(O)C=Cc1ccc(O)cc1 [p-hydroxy-cinnamic acid],None of these botanical extracts illustrated sporicidal activity
7,O=C(O)c1ccc(O)cc1 [p-hydroxybenzoic acid],None of these ingredients derived from botanical extracts illustrated sporicidal activity
8,O=C(O)c1ccc(O)c(O)c1 [protocatechuic acid],None of these ingredients derived from botanical extracts illustrated sporicidal activity
9,O=c1c(-c2ccc(O)cc2)coc2c([C@@H]3O[C@H](CO)[C@@H](O)[C@H](O)[C@H]3O)c(O)ccc12 [puerarin],None of these botanical extracts illustrated sporicidal activity
10,O=c1c(O)c(-c2ccc(O)c(O)c2)oc2cc(O)cc(O)c12 [quercetin],None of these botanical extracts illustrated sporicidal activity
11,OC[C@H]1O[C@@H](OCCc2ccc(O)cc2)[C@H](O)[C@@H](O)[C@@H]1O [salidroside],None of these botanical extracts illustrated sporicidal activity
12,CC[C@H](/C=C/[C@@H](C)[C@H]1CC[C@H]2[C@@H]3CC=C4C[C@@H](O)CC[C@]4(C)[C@H]3CC[C@]12C)C(C)C [stigmasterol],None of these ingredients derived from botanical extracts illustrated sporicidal activity
13,Cc1coc2c1C(=O)C(=O)c1c-2ccc2c1CCCC2(C)C [tanshinone IIA],None of these ingredients derived from botanical extracts illustrated sporicidal activity
14,NCCC(=O)O [β-alanine],None of these ingredients derived from botanical extracts illustrated sporicidal activity
15,bavachinin,None of these ingredients derived from botanical extracts illustrated sporicidal activity
